Source: patent publication US20260217765A1, “NOVEL ANTIMICROBIAL PEPTIDE DESIGNED FROM DUCK-DERIVED ANTIMICROBIAL PEPTIDE ANDUSE THEREOF” (INDUSTRY-ACADEMIC COOPERATION FOUNDATION, CHOSUN UNIVERSITY, priority 2023, published 2026)
≈ marks a conversion by molar mass, not a printed value. Peptide text beside a SMILES is read from it.

Key:
[1] = tested on: Acinetobacter baumannii_isolate 1 (antibiotic-resistant); assay type: cell-based, Acinetobacter baumannii; settings: isolate 1 (antibiotic-resistant)
Source text: (§1) To compare the antimicrobial activity of the peptides prepared in <Example 1>, the minimum inhibitory concentration (MIC), […] measured. Here, the minimal inhibitory concentration (MIC) refers to the lowest concentration of a substance that prevents visible bacterial growth.
(§2) Specifically, the bacterial strains listed in Table 2 below were obtained and cultured in media suitable for each strain until the mid-log phase. The cultures were then diluted to a concentration of 2×10^4 cells/100 μL and prepared in microtiter plates (Nunc, USA). Subsequently, serial 2-fold dilutions of the peptides prepared in Example 1 were prepared, and 10 μL of each dilution was added to the wells, and the plates were incubated at 37° C. for 18 hours. Absorbance at 600 nm was measured using a microtiter plate reader (Merck ELISA reader, Germany) to determine the MIC values for each bacterial strain. The parent peptide dCATH was used as a control.

[2] = tested on: Acinetobacter baumannii_isolate11 (antibiotic-resistant); assay type: cell-based, Acinetobacter baumannii; settings: isolate11 (antibiotic-resistant)
Source text: as §1, §2

[3] = tested on: Acinetobacter baumannii_isolate 18 (antibiotic-resistant); assay type: cell-based, Acinetobacter baumannii; settings: isolate 18 (antibiotic-resistant)
Source text: as §1, §2

[4] = tested on: Acinetobacter baumannii_isolate 17 (antibiotic-resistant); assay type: cell-based, Acinetobacter baumannii; settings: isolate 17 (antibiotic-resistant)
Source text: as §1, §2

[5] = tested on: Acinetobacter baumannii_isolate 23 (antibiotic-resistant); assay type: cell-based, Acinetobacter baumannii; settings: isolate 23 (antibiotic-resistant)
Source text: as §1, §2

[6] = tested on: Acinetobacter baumannii_isolate 14 (antibiotic-resistant); assay type: cell-based, Acinetobacter baumannii; settings: isolate 14 (antibiotic-resistant)
Source text: as §1, §2

[7] = tested on: Acinetobacter baumannii_isolate 5 (antibiotic-resistant); assay type: cell-based, Acinetobacter baumannii; settings: isolate 5 (antibiotic-resistant)
Source text: as §1, §2

[8] = tested on: Acinetobacter baumannii_isolate21 (antibiotic-resistant); assay type: cell-based, Acinetobacter baumannii; settings: isolate21 (antibiotic-resistant)
Source text: as §1, §2

[9] = tested on: Acinetobacter baumannii_isolate 9 (antibiotic-resistant); assay type: cell-based, Acinetobacter baumannii; settings: isolate 9 (antibiotic-resistant)
Source text: as §1, §2

[10] = tested on: Acinetobacter baumannii_isolate 2 (antibiotic-resistant); assay type: cell-based, Acinetobacter baumannii; settings: isolate 2 (antibiotic-resistant)
Source text: as §1, §2

[11] = tested on: Acinetobacter baumannii_isolate 7 (antibiotic-resistant); assay type: cell-based, Acinetobacter baumannii; settings: isolate 7 (antibiotic-resistant)
Source text: as §1, §2

[12] = tested on: Acinetobacter baumannii_isolate 8 (antibiotic-resistant); assay type: cell-based, Acinetobacter baumannii; settings: isolate 8 (antibiotic-resistant)
Source text: as §1, §2

[13] = tested on: Acinetobacter baumannii_isolate 26 (antibiotic-resistant); assay type: cell-based, Acinetobacter baumannii; settings: isolate 26 (antibiotic-resistant)
Source text: as §1, §2

[14] = tested on: Acinetobacter baumannii_isolate15 (antibiotic-resistant); assay type: cell-based, Acinetobacter baumannii; settings: isolate15 (antibiotic-resistant)
Source text: as §1, §2

[15] = tested on: Acinetobacter baumannii_isolate16 (antibiotic-resistant); assay type: cell-based, Acinetobacter baumannii; settings: isolate16 (antibiotic-resistant)
Source text: as §1, §2

[16] = tested on: Acinetobacter baumannii_isolate 6 (antibiotic-resistant); assay type: cell-based, Acinetobacter baumannii; settings: isolate 6 (antibiotic-resistant)
Source text: as §1, §2

[17] = tested on: Acinetobacter baumannii_isolate 24 (antibiotic-resistant); assay type: cell-based, Acinetobacter baumannii; settings: isolate 24 (antibiotic-resistant)
Source text: as §1, §2

[18] = tested on: Acinetobacter baumannii_isolate 19 (antibiotic-resistant); assay type: cell-based, Acinetobacter baumannii; settings: isolate 19 (antibiotic-resistant)
Source text: as §1, §2

[19] = tested on: Acinetobacter baumannii_isolate 13 (antibiotic-resistant); assay type: cell-based, Acinetobacter baumannii; settings: isolate 13 (antibiotic-resistant)
Source text: as §1, §2

in vitro = assay type: cell-based; settings: human, HaCaT keratinocyte cells, Cell Viability
Method: To evaluate the cytotoxicity of the peptides prepared in <Example 1>, toxicity was measured using a human keratinocyte cell line (HaCaT cell line, Dr. N. E. Fusenig, Heidelberg, Germany).
Specifically, HaCaT cells cultured in DMEM medium containing 10% fetal bovine serum (FBS) were seeded at a density of 2×10^5 cells/well into a microtiter plate and incubated for 24 hours. Then, peptides dCATH, dCATH-A1, dCATH-A2, dCATH-A3, dCATH-A4, dCATH-A5, dCATH-A6, and dCATH-A7 were added to each well at concentrations of 3.13, 6.25, 12.5, 25.0, 50.0, and 100.0 μM/well, followed by incubation for 24 hours in a 5% CO2 incubator. After 24 hours, 100 μL of a reaction solution containing 0.5 mg/mL MTT (Thiazolyl Blue Tetrazolium Bromide) dissolved in phosphate-buffered saline (PBS) was added to each well and reacted for 4 hours. After removing the supernatant, 200 μL of DMSO (dimethyl sulfoxide) was added to dissolve the formed MTT crystals, and absorbance at 570 nm was measured to determine cell viability.

[20] = tested on: Bacillus cereus KCTC 2508; assay type: cell-based
Source text: as §1, §2

[21] = tested on: Acinetobacter baumannii KCTC 1017; assay type: cell-based; settings: KCTC 1017
Source text: as §1, §2

[22] = tested on: Staphylococcus aureus ATCC 25923; assay type: cell-based; settings: ATCC 25923
Source text: as §1, §2

[23] = tested on: Escherichia coli ATCC 25922; assay type: cell-based
Source text: as §1, §2

[24] = tested on: Pseudomonas aeruginosa ATCC 27853; assay type: cell-based
Source text: as §1, §2

[25] = tested on: Listeria monocytogenes KCTC 3710; assay type: cell-based
Source text: as §1, §2

## CC[C@H](C)[C@H](NC(=O)[C@H](C)NC(=O)[C@H](CC(C)C)NC(=O)[C@@H]1CCCN1C(=O)[C@@H](NC(=O)[C@H](CC(C)C)NC(=O)[C@H](CCC(N)=O)NC(=O)[C@H](Cc1c[nH]c2ccccc12)NC(=O)[C@H](Cc1ccccc1)NC(=O)[C@H](CCCNC(=N)N)NC(=O)[C@@H](N)CCCCN)C(C)C)C(=O)N[C@@H](CCCCN)C(=O)N[C@H](C(=O)N[C@@H](Cc1ccc(O)cc1)C(=O)N[C@@H](CCCNC(=N)N)C(=O)N[C@@H](C)C(=O)N[C@@H](Cc1c[nH]c2ccccc12)C(=O)N[C@@H](CCCCN)C(=O)N[C@@H](CCCNC(=N)N)C(=O)N[C@@H](CCCNC(=N)N)C(N)=O)[C@@H](C)CC [dCATH, reference compound] (H-KRFWQLVPLAIKIYRAWKRR-NH2; N-terminus assumed)
[1]
  MIC: 2 µM (≈ 5.26 µg/mL)
[2]
  MIC: 2 µM (≈ 5.26 µg/mL)
[3]
  MIC: 2 µM (≈ 5.26 µg/mL)
[4]
  MIC: 2 µM (≈ 5.26 µg/mL)
[5]
  MIC: 2 µM (≈ 5.26 µg/mL)
[6]
  MIC: 2 µM (≈ 5.26 µg/mL)
[7]
  MIC: 2 µM (≈ 5.26 µg/mL)
[8]
  MIC: 2 µM (≈ 5.26 µg/mL)
[9]
  MIC: 2 µM (≈ 5.26 µg/mL)
[10]
  MIC: 2 µM (≈ 5.26 µg/mL)
[11]
  MIC: 4 µM (≈ 10.5 µg/mL)
[12]
  MIC: 2 µM (≈ 5.26 µg/mL)
[13]
  MIC: 2 µM (≈ 5.26 µg/mL)
[14]
  MIC: 2 µM (≈ 5.26 µg/mL)
[15]
  MIC: 2 µM (≈ 5.26 µg/mL)
[16]
  MIC: 4 µM (≈ 10.5 µg/mL)
[17]
  MIC: 4 µM (≈ 10.5 µg/mL)
[18]
  MIC: 2 µM (≈ 5.26 µg/mL)
[19]
  MIC: 2 µM (≈ 5.26 µg/mL)
In vitro
  viability at 24 h, 3.13 µM: 100%
  viability at 24 h, 6.25 µM: 100%
  viability at 24 h, 12.5 µM: 75.3%
  viability at 24 h, 25 µM: 11.6%
  viability at 24 h, 50 µM: 2.51%
[20]
  MIC: 1 µM (≈ 2.63 µg/mL)
[21]
  MIC: 2 µM (≈ 5.26 µg/mL)
[22]
  MIC: 2 µM (≈ 5.26 µg/mL)
[23]
  MIC: 2 µM (≈ 5.26 µg/mL)
[24]
  MIC: 2 µM (≈ 5.26 µg/mL)
[25]
  MIC: 2 µM (≈ 5.26 µg/mL)

## CC[C@H](C)[C@H](NC(=O)[C@H](C)NC(=O)[C@H](CC(C)C)NC(=O)[C@@H]1CCCN1C(=O)[C@@H](NC(=O)[C@H](CC(C)C)NC(=O)[C@H](CCC(N)=O)NC(=O)[C@H](C)NC(=O)[C@H](C)NC(=O)[C@H](CCCNC(=N)N)NC(=O)[C@@H](N)CCCCN)C(C)C)C(=O)N[C@@H](CCCCN)C(=O)N[C@H](C(=O)N[C@@H](Cc1ccc(O)cc1)C(=O)N[C@@H](CCCNC(=N)N)C(=O)N[C@@H](C)C(=O)N[C@@H](Cc1c[nH]c2ccccc12)C(=O)N[C@@H](CCCCN)C(=O)N[C@@H](CCCNC(=N)N)C(=O)N[C@@H](CCCNC(=N)N)C(N)=O)[C@@H](C)CC [dCATH-A3] (H-KRAAQLVPLAIKIYRAWKRR-NH2; N-terminus assumed)
[1]
  MIC: 1 µM (≈ 2.44 µg/mL)
[2]
  MIC: 1 µM (≈ 2.44 µg/mL)
[3]
  MIC: 1 µM (≈ 2.44 µg/mL)
[4]
  MIC: 1 µM (≈ 2.44 µg/mL)
[5]
  MIC: 1 µM (≈ 2.44 µg/mL)
[6]
  MIC: 2 µM (≈ 4.87 µg/mL)
[7]
  MIC: 1 µM (≈ 2.44 µg/mL)
[8]
  MIC: 4 µM (≈ 9.75 µg/mL)
[9]
  MIC: 1 µM (≈ 2.44 µg/mL)
[10]
  MIC: 1 µM (≈ 2.44 µg/mL)
[11]
  MIC: 1 µM (≈ 2.44 µg/mL)
[12]
  MIC: 1 µM (≈ 2.44 µg/mL)
[13]
  MIC: 1 µM (≈ 2.44 µg/mL)
[14]
  MIC: 2 µM (≈ 4.87 µg/mL)
[15]
  MIC: 1 µM (≈ 2.44 µg/mL)
[16]
  MIC: 2 µM (≈ 4.87 µg/mL)
[17]
  MIC: 1 µM (≈ 2.44 µg/mL)
[18]
  MIC: 1 µM (≈ 2.44 µg/mL)
[19]
  MIC: 1 µM (≈ 2.44 µg/mL)
In vitro
  viability at 24 h, 3.13 µM: 92%
  viability at 24 h, 6.25 µM: 91.9%
  viability at 24 h, 12.5 µM: 97.9%
  viability at 24 h, 25 µM: 56.6%
  viability at 24 h, 50 µM: 5.47%
  viability at 24 h, 100 µM: 1.59%
[20]
  MIC: 2 µM (≈ 4.87 µg/mL)
[21]
  MIC: 1 µM (≈ 2.44 µg/mL)
[22]
  MIC: 2 µM (≈ 4.87 µg/mL)
[23]
  MIC: 2 µM (≈ 4.87 µg/mL)
[24]
  MIC: 2 µM (≈ 4.87 µg/mL)
[25]
  MIC: 2 µM (≈ 4.87 µg/mL)

## CC[C@H](C)[C@H](NC(=O)[C@H](C)NC(=O)[C@H](CCCCN)NC(=O)[C@H](CCCCN)NC(=O)[C@@H](NC(=O)[C@H](CC(C)C)NC(=O)[C@H](CCC(N)=O)NC(=O)[C@H](C)NC(=O)[C@H](C)NC(=O)[C@H](CCCNC(=N)N)NC(=O)[C@@H](N)CCCCN)C(C)C)C(=O)N[C@@H](CCCCN)C(=O)N[C@H](C(=O)N[C@@H](Cc1ccc(O)cc1)C(=O)N[C@@H](CCCNC(=N)N)C(=O)N[C@@H](C)C(=O)N[C@@H](Cc1c[nH]c2ccccc12)C(=O)N[C@@H](CCCCN)C(=O)N[C@@H](CCCNC(=N)N)C(=O)N[C@@H](CCCNC(=N)N)C(N)=O)[C@@H](C)CC [dCATH-A5] (H-KRAAQLVKKAIKIYRAWKRR-NH2; N-terminus assumed)
[1]
  MIC: 1 µM (≈ 2.48 µg/mL)
[2]
  MIC: 1 µM (≈ 2.48 µg/mL)
[3]
  MIC: 1 µM (≈ 2.48 µg/mL)
[4]
  MIC: 1 µM (≈ 2.48 µg/mL)
[5]
  MIC: 1 µM (≈ 2.48 µg/mL)
[6]
  MIC: 1 µM (≈ 2.48 µg/mL)
[7]
  MIC: 1 µM (≈ 2.48 µg/mL)
[8]
  MIC: 1 µM (≈ 2.48 µg/mL)
[9]
  MIC: 1 µM (≈ 2.48 µg/mL)
[10]
  MIC: 1 µM (≈ 2.48 µg/mL)
[11]
  MIC: 1 µM (≈ 2.48 µg/mL)
[12]
  MIC: 1 µM (≈ 2.48 µg/mL)
[13]
  MIC: 1 µM (≈ 2.48 µg/mL)
[14]
  MIC: 1 µM (≈ 2.48 µg/mL)
[15]
  MIC: 1 µM (≈ 2.48 µg/mL)
[16]
  MIC: 1 µM (≈ 2.48 µg/mL)
[17]
  MIC: 2 µM (≈ 4.97 µg/mL)
[18]
  MIC: 1 µM (≈ 2.48 µg/mL)
[19]
  MIC: 1 µM (≈ 2.48 µg/mL)
In vitro
  viability at 24 h, 3.13 µM: 100%
  viability at 24 h, 6.25 µM: 92.3%
  viability at 24 h, 12.5 µM: 95.1%
  viability at 24 h, 25 µM: 58%
  viability at 24 h, 50 µM: 8.27%
  viability at 24 h, 100 µM: 3.71%
[20]
  MIC: 1 µM (≈ 2.48 µg/mL)
[21]
  MIC: 1 µM (≈ 2.48 µg/mL)
[22]
  MIC: 1 µM (≈ 2.48 µg/mL)
[23]
  MIC: 1 µM (≈ 2.48 µg/mL)
[24]
  MIC: 1 µM (≈ 2.48 µg/mL)
[25]
  MIC: 1 µM (≈ 2.48 µg/mL)
